Assay results as given in patent US20250388574A1, “HETEROCYCLIC COMPOUNDS AS TRIGGERING RECEPTOR EXPRESSED ON MYELOID CELLS 2 AGONISTS AND METHODS OF USE” (AMGEN INC., priority 2020, published 2025).

Target: hTREM2 (Homo sapiens, UniProt Q9NZC2)
Test: Phospho-Syk AlphaScreen/AlphaLISA assay in TREM2 and DAP12 overexpressing HEK293 cells (Example A1)
Type: cell-based
Design: expressed in transfected cells
Details: HEK293 cells; for EC50: read-out: hTREM2 EC50
Experimental: Pharmacological measurements of TREM2 signaling through DAP12 were made with TREM2 and DAP12 overexpressing HEK293 cells stable cell lines that had been single-cell cloned (“TREM2/DAP12-HEK”). The readout of the TREM2 signaling utilized Perkin Elmer AlphaScreen/AlphaLISA technology monitoring the phosphorylation levels of the Syk kinase. TREM2/DAP12-HEK cell lines were cultured in DMEM-F12 (Corning 10-092-CM) supplemented with 1× Penicillin/Streptomycin (Corning 30-002-CI), 1× GlutaMAX (Gibco 35050-061), and 10% Fetal Bovine Serum (Life Technologies 10099) referred to as “HEK Culture Medium”. Suspensions of TREM2/DAP12-HEK cells were prepared in HEK Culture Medium and dispensed into 384-well poly-D-lysine coated microplates (Corning 354661) at a density of 20,000 cells/well using a Multidrop Combi peristaltic microplate dispenser (Thermo), 25 uL volume of cell suspension/well. Plates containing cells were then incubated for 20 hours in a humidified cell culture incubator at 37° C. with 5% CO2 (Thermo). […] Assay Buffer contained diluted test articles (in 1% final DMSO concentration for compounds) or 100 nM anti-human/mouse TREM2 antibody (R&D Systems MAB17291) as a positive control, 100 nM or rat IgG2B isotype Ab as a negative control (R&D Systems MAB0061). Incubated the plates with test articles and controls for 45 minutes at room temperature and then aspirated/removed the medium from each well of the plates. Used a Multidrop Combi peristaltic liquid handler (Thermo) to dispense 15 uL/well of “Cell Lysis Immunoassay Buffer”. The Cell Lysis Immunoassay Buffer contained M-PER Mammalian Protein Extraction Reagent (Pierce/ThermoFisher 78505), 1× Halt Phosphatase Inhibitor Cocktail (ThermoFisher #78427), 0.1875 nM anti-phospho-Syk ([…]/526) ([…]) rabbit mAb (Cell Signaling Technologies catalog #2710), and 1.5 nM biotinylated Mouse anti-human Syk (4D10) antibody (BD Biosciences, catalog #624008). Incubated plates for 1 hour at room temperature after the addition of the Cell Lysis Immunoassay Buffer. Used the Multidrop Combi liquid handler to dispense 15 μL of AlphaScreen Acceptor Bead Solution containing 7.5 μg/mL anti-rabbit IgG (Fc specific) AlphaLISA Acceptor Beads (Perkin Elmer A[…]) in 1× Immunoassay buffer (Perkin Elmer A[…]) to each well of the microplates. Incubated plates for 2 hours at room temperature. Following the incubation with the AlphaLISA Acceptor Bead Solution, used a Multidrop Combi liquid handler (Thermo) to dispense 15 μL of AlphaScreen Donor Bead Solution containing 30 μg/mL of AlphaScreen Streptavidin Donor beads (Perkin Elmer 6760002B) in 1× Immunoassay buffer (Perkin Elmer A[…]) to each well of the microplates. Incubated microplates for 2 hours protected from light sources as the AlphaScreen reagents are light sensitive. Once the final incubation was completed, acquired AlphaScreen signal from the donor and acceptor beads using an Envision high throughput multi-modal microplate reader (Perkin Elmer) calibrated to the plate type with the AlphaScreen mirror and filter-set in 384-well mode, 680 nanometer excitation wavelength. The total measurement time per well was 550 milliseconds with a 180 millisecond excitation time. After reading the AlphaScreen signal for each well of the microplates, on a plate-by-plate basis, each raw test article well value (x) was normalized to a Percent of Control (“POC”) value using the following formula: […] Each plate contained 12 of each type of control wells that were used to generate the mean values. For concentration response curve analysis with test articles tested at various concentrations, the % of activation values were analyzed with 4 Parameter Logistic or Sigmoidal Dose-Response Models using GeneData Screener (GeneData, AG) or GraphPad Prism 7 (Graphpad Software, Inc.). […] This assay may be used to test any of the compounds described herein to assess and characterize a compound's ability to act as an agonist of TREM2.

hTREM2, sequence (Q9NZC2 19-230): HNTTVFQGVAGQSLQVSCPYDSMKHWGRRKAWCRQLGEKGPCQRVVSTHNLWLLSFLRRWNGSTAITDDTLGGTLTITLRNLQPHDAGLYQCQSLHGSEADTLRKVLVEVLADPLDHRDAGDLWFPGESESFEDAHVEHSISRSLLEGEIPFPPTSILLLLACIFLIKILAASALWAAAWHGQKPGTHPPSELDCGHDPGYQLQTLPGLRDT
hTREM2, sequence (O43914 22-113 partner): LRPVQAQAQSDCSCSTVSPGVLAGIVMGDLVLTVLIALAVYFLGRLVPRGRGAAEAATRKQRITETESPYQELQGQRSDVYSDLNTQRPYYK

| Emax | EC50 [nM] | SMILES |
| --- | --- | --- |
| +++ (Emax>200 and ≤300) | 50 to 500 | Cc1nn(C)cc1[C@H]1CN(c2cc3nc(C)n(C)c(=O)c3c(-c3ccc(Cl)cc3F)n2)CCO1 [Example 263, (S)-5-(4-chloro-2-fluorophenyl)-7-(2-(1,3-dimethyl-1H-pyrazol-4-yl)morpholino)-2,3-dimethylpyrido[4,3-d]pyrimidin-4(3H)-one] |
| +++ (Emax>200 and ≤300) | 500 to 3000 | Cc1nc2cc(N3CCO[C@H](c4cnn(C)c4)C3)nc(-c3ccc(Cl)cc3F)c2c(=O)n1C [Example 2, 5-(4-chloro-2-fluorophenyl)-2,3-dimethyl-7-((2R)-2-(1-methyl-1H-pyrazol-4-yl)-4-morpholinyl)pyrido[4,3-d]pyrimidin-4(3H)-one] |
| +++ (Emax>200 and ≤300) | < 50 | Cc1nc2cc(N3CCO[C@@H](c4cnn(C5CC(F)(F)C5)c4)C3)nc(-c3ccc(Cl)cc3F)c2c(=O)n1C [Example 131, 5-(4-chloro-2-fluorophenyl)-7-((2S)-2-(1-(3,3-difluorocyclobutyl)-1H-pyrazol-4-yl)-4-morpholinyl)-2,3-dimethylpyrido[4,3-d]pyrimidin-4(3H)-one] |
| ++ (Emax>100 and ≤200) | 500 to 3000 | Cc1nc2cc(N3CCc4ncn(C)c4C3)nc(-c3ccc(Cl)cc3F)c2c(=O)n1C [Example 222, 5-(4-chloro-2-fluorophenyl)-2,3-dimethyl-7-(3-methyl-3,4,6,7-tetrahydro-5H-imidazo[4,5-c]pyridin-5-yl)pyrido[4,3-d]pyrimidin-4(3H)-one] |
| ++++ (Emax>300) | < 50 | COc1cc([C@H]2C[C@@H](c3cc4nc(C)n(C)c(=O)c4c(-c4ccc(Cl)cc4F)n3)CCO2)ccn1 (single isomer, unassigned) [Example 172] |
| +++ (Emax>200 and ≤300) | 50 to 500 | Cc1nc2cc(C3=CC(c4cnn(C)c4)OCC3)nc(-c3ccc(Cl)cc3F)c2c(=O)n1C (racemic) [Example 164, 5-(4-chloro-2-fluorophenyl)-2,3-dimethyl-7-(6-(1-methyl-1H-pyrazol-4-yl)-3,6-dihydro-2H-pyran-4-yl)pyrido[4,3-d]pyrimidin-4(3H)-one] |
| ++++ (Emax>300) | < 50 | Cc1nc2cc(N3CCO[C@@H](c4cn[nH]c4)C3)nc(-c3ccc(Cl)cc3F)c2c(=O)n1C [Example 22, 5-(4-chloro-2-fluorophenyl)-2,3-dimethyl-7-((2S)-2-(1H-pyrazol-4-yl)-4-morpholinyl)pyrido[4,3-d]pyrimidin-4(3H)-one] |
| ++++ (Emax>300) | 500 to 3000 | Cc1nc2cc(N3CCCC(N4CCC4)C3)nc(-c3ccc(Cl)cc3F)c2c(=O)n1C (stereo not drawn) [Example 110, 7-(3-(1-azetidinyl)-1-piperidinyl)-5-(4-chloro-2-fluorophenyl)-2,3-dimethylpyrido[4,3-d]pyrimidin-4(3H)-one] |
| +++ (Emax>200 and ≤300) | 500 to 3000 | Cc1nc2cc(N3CCO[C@@H]([C@H]4CCO4)C3)nc(-c3ccc(Cl)cc3F)c2c(=O)n1C (single isomer, unassigned) [Example 38] |
| +++ (Emax>200 and ≤300) | 50 to 500 | Cc1nn(C)cc1C1CN(c2cc3nc(C)n(C)c(=O)c3c(-c3ccc(Cl)cc3F)n2)CCO1 (stereo not drawn) [Example 68, 5-(4-chloro-2-fluorophenyl)-7-(2-(1,3-dimethyl-1H-pyrazol-4-yl)-4-morpholinyl)-2,3-dimethylpyrido[4,3-d]pyrimidin-4(3H)-one] |
| ++++ (Emax>300) | 500 to 3000 | Cc1nc2cc(N3C[C@@H](c4ccsc4)O[C@@H](C)C3)nc(-c3ccc(Cl)cc3F)c2c(=O)n1C (single isomer, unassigned) [Example 72] |
| ++ (Emax>100 and ≤200) | 3000 to 100000 | Cc1nc2cc(N3CCC[C@@H](C4CNC4)C3)nc(-c3ccc(Cl)cc3F)c2c(=O)n1C [Example 251, (S)-7-(3-(azetidin-3-yl)piperidin-1-yl)-5-(4-chloro-2-fluorophenyl)-2,3-dimethylpyrido[4,3-d]pyrimidin-4(3H)-one] |
